Results on eight molecules are retold here after US9156834B2, “Derivatives of heteroarylsulfonamides, their preparation and their application in human therapy” (PIERRE FABRE MEDICAMENT, priority 2010, dated 2015).

Where a name gives a salt, the structure may show the parent alone.

The target of one data set is T1, human isoform of the Kv1.5 channels (Homo sapiens, UniProt P22460).
T1 construct: expressed in transfected cells; host or cells: HEK293
T1 sequence (P22460 whole entry, canonical isoform): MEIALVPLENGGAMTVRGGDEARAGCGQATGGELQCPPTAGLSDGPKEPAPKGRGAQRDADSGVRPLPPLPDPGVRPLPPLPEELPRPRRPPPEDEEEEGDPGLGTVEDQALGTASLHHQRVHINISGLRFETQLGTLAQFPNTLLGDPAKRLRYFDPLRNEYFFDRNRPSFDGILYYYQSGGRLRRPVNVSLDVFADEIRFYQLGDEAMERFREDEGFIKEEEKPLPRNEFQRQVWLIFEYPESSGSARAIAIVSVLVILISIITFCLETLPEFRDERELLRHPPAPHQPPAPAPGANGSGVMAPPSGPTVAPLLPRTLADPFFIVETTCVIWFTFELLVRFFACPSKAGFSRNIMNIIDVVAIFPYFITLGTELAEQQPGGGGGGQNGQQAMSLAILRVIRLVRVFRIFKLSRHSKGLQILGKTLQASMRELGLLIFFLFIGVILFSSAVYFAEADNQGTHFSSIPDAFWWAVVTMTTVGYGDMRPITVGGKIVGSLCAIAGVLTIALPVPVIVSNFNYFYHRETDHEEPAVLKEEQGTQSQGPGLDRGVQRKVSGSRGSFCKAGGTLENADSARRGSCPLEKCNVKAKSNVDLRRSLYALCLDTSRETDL
The experiment in a line: FLIPR thallium ion measurement on potassium channel Kv1.5. The class given is cell-based. The note with it: HEK293 cells stably transfected with hKv1.5; compound 10 μM, 15 min at 37° C.; fluorescence normalised with 10 μM DPO. As for the experimental part: The pharmacological evaluation of the compounds on potassium channel Kv1.5 was undertaken using a 96-well plate and FLIPR technology by thallium ion measurement. The HEK293 cells, transfected in a stable manner with the human isoform of the Kv1.5 channels, are seeded 24 h before the experiment in 96-well plates ([…], 200 μl/well) with polylysine applied in the following culture medium: DMEM, 10% SVF, Penicillin/Streptomycin, G418 as the selection antibiotic.
The FLIPR experiment is undertaken using “FLIPR Potassium Ion Channel Assay Kit”, as indicated by the manufacturer (Molecular Devices).
Briefly, the culture medium is replaced by the solution containing the thallium marker for 90 min at 37° C. On conclusion of this step the compounds for testing are added to a final concentration of 10 μM in the well for 15 min at 37° C. The basic fluorescence is then read for 60 sec. The addition of depolarising medium (20 mM of potassium and 3 mM of final thallium) opens the potassium channels and causes an increase of the fluorescence of the thallium fluorophore corresponding to an influx of thallium ions through the hKv1.5 channels. The measurement is made 30 sec after the injection of the depolarising solution. The application of 10 μM DPO (Tocris, blocker of the Kv1.5 channels) enables the fluorescence to be normalised.
The term % inhibition denotes the share of the control response that was lost under treatment. High values mean a response far below the control, low ones a response near the control. For `O=C(c1ccccc1NS(=O)(=O)c1ccccn1)N1CCN(c2nc3ccc(Br)cc3s2)CC1` [Example 3, N-(2-(4-(6-bromobenzo[d]thiazol-2-yl)piperazine-1-carbonyl)phenyl)-pyridine-2-sulfonamide], the “% inhibition at 10 μM” value is 100%.
A word on the inhibition: it is how much of the control response was suppressed. A higher inhibition goes with a strong effect. In the case of `O=S(=O)(Nc1ccccc1OC1CCN(c2nc3ccc(Br)cc3s2)CC1)c1ccccn1` [Example 27, N-(2-(1-(6-bromobenzo[d]thiazol-2-yl)piperidin-4-yloxy)phenyl)-pyridine-2-sulfonamide], the inhibition at 10 µM was 100%.
With `O=S(=O)(Nc1ccccc1OCC1CCN(c2nc3ccccc3s2)C1)c1ccccn1` (stereo not drawn) [Example 28, N-(2-((1-(benzo[d]thiazol-2-yl)pyrrolidin-3-yl)methoxy)phenyl)-pyridine-2-sulfonamide], the inhibition at 10 µM is 76%.
On to `O=S(=O)(Nc1ccccc1OCC1CCN(c2nc3ccc(F)cc3s2)C1)c1ccccn1` (stereo not drawn) [Example 29, N-(2-((1-(6-fluorobenzo[d]thiazol-2-yl)pyrrolidin-3-yl)methoxy)phenyl)pyridine-2-sulfonamide], for which at 10 µM the inhibition was 64.5%.
On to `O=S(=O)(Nc1ccccc1OCC1CCN(c2nc3ccc(Cl)cc3s2)C1)c1ccccn1` (stereo not drawn) [Example 30, N-(2-((1-(6-chlorobenzo[d]thiazol-2-yl)pyrrolidin-3-yl)methoxy)phenyl)pyridine-2-sulfonamide], for which the inhibition at 10 µM turned out to be 54.1%.
Turning to `Cc1cccc2sc(N3CCC(COc4ccccc4NS(=O)(=O)c4ccccn4)C3)nc12` (stereo not drawn) [Example 31, N-(2-((1-(4-methylbenzo[d]thiazol-2-yl)pyrrolidin-3-yl)methoxy)phenyl)pyridine-2-sulfonamide], testing at 10 µM gave an inhibition of 56%.
Same read-out and setting: with `COc1cccc2sc(N3CCC(COc4ccccc4NS(=O)(=O)c4ccccn4)C3)nc12` (stereo not drawn) [Example 32, N-(2-((1-(4-methoxybenzo[d]thiazol-2-yl)pyrrolidin-3-yl)methoxy)-phenyl)pyridine-2-sulfonamide] the figure was 53.7%.

Test system in a further data set: not given
Test: not given
Settings: not given
The term melting point denotes the temperature of the solid-liquid transition. In turn, `Cc1cccc(S(=O)(=O)Nc2ccccc2C(=O)N2CCN(c3nc4ccc(Br)cc4s3)CC2)n1` (as salt: hydrochloride) [Example 9, N-(2-(4-(6-bromobenzo[d]thiazol-2-yl)piperazine-1-carbonyl)phenyl)-6-methylpyridine-2-sulfonamide dihydrochloride] displayed a melting point of 180 °C.
Same read-out and setting: with `O=C(c1ccccc1NS(=O)(=O)c1ccccn1)N1CCN(c2nc3ccc(Br)cc3s2)CC1` [Example 3, N-(2-(4-(6-bromobenzo[d]thiazol-2-yl)piperazine-1-carbonyl)phenyl)-pyridine-2-sulfonamide] the figure was 102 °C.
